The results in this text go back to ChEMBL document CHEMBL1128629, “Mechanism-based inactivation of porphobilinogen synthase: Substitution of ketone functionality in the substrate with a thioester” (Bioorg Med Chem Lett, 1995).

What all share (conditions): Escherichia coli
The target of test [1] is T1, Delta-aminolevulinic acid dehydratase (Homo sapiens) (UniProt P13716).
T1 sequence (whole entry): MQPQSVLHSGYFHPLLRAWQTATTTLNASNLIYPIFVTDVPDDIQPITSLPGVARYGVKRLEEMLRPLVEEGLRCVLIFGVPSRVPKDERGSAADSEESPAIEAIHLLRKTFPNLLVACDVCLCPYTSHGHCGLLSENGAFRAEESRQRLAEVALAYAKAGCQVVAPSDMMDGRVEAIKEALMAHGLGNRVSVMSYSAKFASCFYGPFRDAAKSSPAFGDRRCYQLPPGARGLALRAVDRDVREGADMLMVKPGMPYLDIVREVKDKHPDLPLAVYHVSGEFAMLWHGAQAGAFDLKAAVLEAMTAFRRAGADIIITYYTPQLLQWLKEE
The test can be described thus: Inhibitory activity against porphobilinogen synthase in presence of 150 uM over 30 min.

Test [2] addresses T1, Delta-aminolevulinic acid dehydratase (Homo sapiens). The test is described as follows: Retention of porphobilinogen synthase activity in presence of 0.3 uM of the compound.
The target is the same in test [3]. The test is described as follows: Inhibitory activity against porphobilinogen synthase in presence of 5 mM for 30 min; No loss in activity.

For `NCC(=O)SCC(=O)O`, in test [1], the Loss of activity was 80%.

For the compound `NCC(=O)CCC(=O)O`, the Retention in test [2] came out at 80%. As to `NCC(=O)OCC(=O)O`, the Loss of activity entry in test [3] was “No loss in activity”.
